# From PMC4835159 (Journal of Medicinal Chemistry, 2016)
# Where “and” joins values, the source holds several entries; their conditions need not be identical. Identical values can stand only once. Like-named read-outs stand apart in the source and are kept apart here.
# Key:
# CYP121 [1] = target: T1, CYP121 (Mycobacterium tuberculosis, UniProt P9WPP7); format: binding
# Mtb H37Rv = test: Antimycobacterial activity assay (MIC90); format: cell-based, Mycobacterium tuberculosis; set-up: key to MIC90: “N” indicates that compounds did not produce any significant cell death within the tested concentration range; conditions: triplicate, 0–100 μM, 2 weeks
# CYP121 [2] = target: T1, CYP121; test: Native mass spectrometry of CYP121 with ligands; format: binding
# [3] = tested on: CYP1A (combined CYP1A1 and CYP1A2); test: Human P450 inhibition in human liver microsomes, CYP1A (ethoxyresorufin); conditions: human, microsomes
# CYP121 [4] = target: T1, CYP121; test: Single shot UV–vis absorbance assay (Soret band shift, competition with type II inhibitor) on CYP121; format: binding; conditions: for Δλmax (change in wavelength of the Soret band): CYP121 5 μM, vs 1% v/v DMSO-d6 alone (λmax = 416.5 nm), single shot; for shifts in the CYP121 optical spectrum: UV–vis spectroscopy
# CYP144TR = target: T2, CYP144TR (Mycobacterium tuberculosis, UniProt P9WPL1)
# T2 sequence (P9WPL1 31-434 limits assumed): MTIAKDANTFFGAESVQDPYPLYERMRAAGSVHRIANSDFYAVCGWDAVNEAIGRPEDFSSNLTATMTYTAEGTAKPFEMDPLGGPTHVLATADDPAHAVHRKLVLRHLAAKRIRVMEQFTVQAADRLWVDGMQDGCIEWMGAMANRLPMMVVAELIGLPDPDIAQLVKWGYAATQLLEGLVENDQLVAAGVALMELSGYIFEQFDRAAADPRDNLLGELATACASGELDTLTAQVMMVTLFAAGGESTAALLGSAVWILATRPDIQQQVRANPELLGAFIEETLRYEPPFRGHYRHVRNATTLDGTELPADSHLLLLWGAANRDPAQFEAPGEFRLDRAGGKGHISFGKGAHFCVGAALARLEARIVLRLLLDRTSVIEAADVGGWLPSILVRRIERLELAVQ
# CYP125 = target: T3, CYP125 (Mycobacterium tuberculosis, UniProt P9WPP1); test: Single shot UV–vis binding mode assay on CYP125
# T3 sequence (P9WPP1 1-433): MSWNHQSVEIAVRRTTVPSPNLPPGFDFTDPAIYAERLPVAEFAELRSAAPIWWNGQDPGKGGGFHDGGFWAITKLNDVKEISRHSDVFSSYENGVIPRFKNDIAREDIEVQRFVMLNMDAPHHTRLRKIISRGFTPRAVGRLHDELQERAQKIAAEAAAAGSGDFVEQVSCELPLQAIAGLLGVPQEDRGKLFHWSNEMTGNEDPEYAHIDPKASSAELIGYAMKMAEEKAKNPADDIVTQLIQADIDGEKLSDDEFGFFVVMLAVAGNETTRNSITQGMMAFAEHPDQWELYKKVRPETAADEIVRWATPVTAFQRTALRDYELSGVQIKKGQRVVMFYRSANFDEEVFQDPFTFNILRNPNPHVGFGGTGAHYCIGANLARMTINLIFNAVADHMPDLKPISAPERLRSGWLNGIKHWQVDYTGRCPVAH
# [5] = Gibbs free energy of binding to CYP121 divided by number of heavy atoms (ΔG/HA)
# T1 sequence (P9WPP7 whole entry): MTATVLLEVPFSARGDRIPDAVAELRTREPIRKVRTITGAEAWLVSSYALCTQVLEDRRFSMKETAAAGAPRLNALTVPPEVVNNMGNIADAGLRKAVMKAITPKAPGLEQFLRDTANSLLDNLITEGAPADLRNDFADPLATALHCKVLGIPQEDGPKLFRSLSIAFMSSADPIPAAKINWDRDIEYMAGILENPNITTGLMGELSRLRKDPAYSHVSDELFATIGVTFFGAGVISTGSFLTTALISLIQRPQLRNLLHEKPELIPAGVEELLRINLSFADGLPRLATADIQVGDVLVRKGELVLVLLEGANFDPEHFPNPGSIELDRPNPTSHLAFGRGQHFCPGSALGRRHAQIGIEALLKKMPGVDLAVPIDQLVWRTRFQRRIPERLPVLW
smiles,measurement,setting,value
"Nc1[nH]ncc1-c1ccc(O)cc1 [compound 4, 4-(5-amino-1H-pyrazol-4-yl)phenol]",LE (ligand efficiency),CYP121 [1]; [5],0.29
"Nc1[nH]nc(-c2cccc(F)c2)c1-c1ccc(O)cc1 [14c, 4-(5-Amino-3-(3-fluorophenyl)-1H-pyrazol-4-yl)phenol]",MIC90,Mtb H37Rv,N
same,LE (ligand efficiency),CYP121 [1]; [5],0.25
Cc1ccc2cc(N)ccc2n1 [compound 9],LE (ligand efficiency),CYP121 [1]; [5],0.39
"Nc1cc(-c2ccc(O)cc2)n[nH]1 [compound 3, 4-(5-Amino-1H-pyrazol-3-yl)phenol]",LE (ligand efficiency),CYP121 [1]; [5],0.30
"Oc1ccc(-c2n[nH]c(NCc3ccc4[nH]ccc4c3)c2-c2ccc(O)cc2)cc1 [26e, 4,4′-(5-(((1H-Indol-5-yl)methyl)amino)-1H-pyrazole-3,4-diyl)diphenol]",LE (ligand efficiency),CYP121 [1]; [5],0.19
"Nc1cccc(-c2cccc(-c3cn[nH]c3N)c2)c1 [19a, 4-(3′-Amino-[1,1′-biphenyl]-3-yl)-1H-pyrazol-5-amine]",MIC90,Mtb H37Rv,N
same,LE (ligand efficiency),CYP121 [1],0.35
same,Monomer (%) of CYP121,CYP121 [2]; Protein-Ligand Ratio 1:0.5,23%
same,"ligand binding stoichiometry, CYP121 Dimer",CYP121 [2]; Protein-Ligand Ratio 1:0.5,0
same,"ligand binding stoichiometry, CYP121 Monomer",CYP121 [2]; Protein-Ligand Ratio 1:0.5,0
same,Monomer (%) of CYP121,CYP121 [2]; Protein-Ligand Ratio 1:1,28%
same,"ligand binding stoichiometry, CYP121 Dimer",CYP121 [2]; Protein-Ligand Ratio 1:1,0
same,"ligand binding stoichiometry, CYP121 Monomer",CYP121 [2]; Protein-Ligand Ratio 1:1,0
same,Monomer (%) of CYP121,CYP121 [2]; Protein-Ligand Ratio 1:25,33%
same,"ligand binding stoichiometry, CYP121 Dimer",CYP121 [2]; Protein-Ligand Ratio 1:25,2
same,"ligand binding stoichiometry, CYP121 Monomer",CYP121 [2]; Protein-Ligand Ratio 1:25,1
Nc1cccc(Cn2cncn2)c1 [compound 8],LE (ligand efficiency),CYP121 [1]; [5],0.29
"O=c1cc(-c2ccccc2)oc2c1ccc1ccccc12 [alpha-naphthoflavone, reference compound]",IC50,[3],59.7 nM
"Oc1ccc(-c2n[nH]c(NCc3ccco3)c2-c2ccc(O)cc2)cc1 [26d, 4,4′-(5-((Furan-2-ylmethyl)amino)-1H-pyrazole-3,4-diyl)diphenol]",LE (ligand efficiency),CYP121 [1]; [5],0.24
"Nc1[nH]ncc1-c1cccc(-c2ccc3cc[nH]c3c2)c1 [18h, 4-(3-(1H-Indol-6-yl)phenyl)-1H-pyrazol-5-amine]",Δλmax (change in wavelength of the Soret band),CYP121 [4],0 nm
"Oc1ccc(Nc2cc(-c3ccc(O)cc3)n[nH]2)cc1 [compound 6, 4-((3-(4-Hydroxyphenyl)-1H-pyrazol-5-yl)amino)phenol]",LE (ligand efficiency),CYP121 [1]; [5],0.34
same,Monomer (%) of CYP121,CYP121 [2]; Protein-Ligand Ratio 1:0.5,11%
same,"ligand binding stoichiometry, CYP121 Dimer",CYP121 [2]; Protein-Ligand Ratio 1:0.5,0
same,"ligand binding stoichiometry, CYP121 Monomer",CYP121 [2]; Protein-Ligand Ratio 1:0.5,0
same,Monomer (%) of CYP121,CYP121 [2]; Protein-Ligand Ratio 1:1,26%
same,"ligand binding stoichiometry, CYP121 Dimer",CYP121 [2]; Protein-Ligand Ratio 1:1,0
same,"ligand binding stoichiometry, CYP121 Monomer",CYP121 [2]; Protein-Ligand Ratio 1:1,0
same,Monomer (%) of CYP121,CYP121 [2]; Protein-Ligand Ratio 1:25,12%
same,"ligand binding stoichiometry, CYP121 Dimer",CYP121 [2]; Protein-Ligand Ratio 1:25,1
same,"ligand binding stoichiometry, CYP121 Monomer",CYP121 [2]; Protein-Ligand Ratio 1:25,1
"Nc1cccc(-c2cc(-c3cn[nH]c3N)ccc2OCc2ccccc2)c1 [19b, 4-(3′-Amino-6-(benzyloxy)-[1,1′-biphenyl]-3-yl)-1H-pyrazol-5-amine]",LE (ligand efficiency),CYP121 [1]; [5],0.23
same,shifts in the CYP121 optical spectrum,CYP121 [4],type II shifts
"CO[C@H]1/C=C/O[C@@]2(C)Oc3c(C)c(O)c4c(O)c(c(/C=N/N5CCN(C)CC5)c(O)c4c3C2=O)NC(=O)/C(C)=C\C=C\[C@H](C)[C@H](O)[C@@H](C)[C@@H](O)[C@@H](C)[C@H](OC(C)=O)[C@@H]1C [Rifampicin, reference compound]",MIC,"Mtb H37Rv; Mycobacterium tuberculosis, 336 h",0.75 µM
"Nc1[nH]ncc1-c1cccc(-c2ccncc2)c1 [18f, 4-(3-(Pyridin-4-yl)phenyl)-1H-pyrazol-5-amine]",Δλmax (change in wavelength of the Soret band),CYP121 [4],1 nm
"Oc1ccc(-c2n[nH]c(NCc3cccc4[nH]ncc34)c2-c2ccc(O)cc2)cc1 [26f, 4,4′-(5-(((1H-Indazol-4-yl)methyl)amino)-1H-pyrazole-3,4-diyl)diphenol]",LE (ligand efficiency),CYP121 [1]; [5],0.20
"O=C(Nc1[nH]nc(-c2ccc(O)cc2)c1-c1ccc(O)cc1)c1ccc(O)cc1 [29b, N-(3,4-Bis(4-hydroxyphenyl)-1H-pyrazol-5-yl)-4-hydroxybenzamide]",LE (ligand efficiency),CYP121 [1]; [5],0.19
"Oc1ccc(-c2n[nH]c(NCc3c[nH]cn3)c2-c2ccc(O)cc2)cc1 [26h, 4,4′-(5-(((1H-Imidazol-4-yl)methyl)amino)-1H-pyrazole-3,4-diyl)diphenol]",LE (ligand efficiency),CYP121 [1]; [5],0.19
same,Δλmax (type II shift),"CYP121 [4]; ligand 100 μM, CYP121",+1.5 nm
"O=C(Nc1[nH]nc(-c2ccc(O)cc2)c1-c1ccc(O)cc1)c1ccccc1 [29a, N-(3,4-Bis(4-hydroxyphenyl)-1H-pyrazol-5-yl)benzamide]",LE (ligand efficiency),CYP121 [1]; [5],0.18
"Nc1[nH]ncc1-c1cccc(-c2ccc3[nH]ccc3c2)c1 [18g, 4-(3-(1H-Indol-5-yl)phenyl)-1H-pyrazol-5-amine]",Δλmax (change in wavelength of the Soret band),CYP121 [4],0 nm
"Oc1ccc(-c2n[nH]c(NCc3ccncc3)c2-c2ccc(O)cc2)cc1 [26g, 4,4′-(5-((Pyridin-4-ylmethyl)amino)-1H-pyrazole-3,4-diyl)diphenol]",LE (ligand efficiency),CYP121 [1]; [5],0.18
"Nc1[nH]nc(-c2ccc(O)cc2O)c1-c1ccc(O)cc1 [14d, 4-(5-amino-4-(4-hydroxyphenyl)-1H-pyrazol-3-yl)benzene-1,3-diol]",LE (ligand efficiency),CYP121 [1]; [5],0.24
"COc1ccc(-c2n[nH]c(N)c2-c2cccc(-c3cccc(N)c3)c2)cc1 [24a, 4-(3′-Amino-[1,1′-biphenyl]-3-yl)-3-(4-methoxyphenyl)-1H-pyrazol-5-amine]",MIC90,"Mtb H37Rv; Mycobacterium tuberculosis, 336 h, read-out: MIC90",50 µM
same,LE (ligand efficiency),CYP121 [1]; [5],0.38
same,Monomer (%) of CYP121,CYP121 [2]; Protein-Ligand Ratio 1:0.5,19%
same,"ligand binding stoichiometry, CYP121 Dimer",CYP121 [2]; Protein-Ligand Ratio 1:0.5,1
same,"ligand binding stoichiometry, CYP121 Monomer",CYP121 [2]; Protein-Ligand Ratio 1:0.5,0
same,Monomer (%) of CYP121,CYP121 [2]; Protein-Ligand Ratio 1:1,16%
same,"ligand binding stoichiometry, CYP121 Dimer",CYP121 [2]; Protein-Ligand Ratio 1:1,1
same,"ligand binding stoichiometry, CYP121 Monomer",CYP121 [2]; Protein-Ligand Ratio 1:1,1
same,Monomer (%) of CYP121,CYP121 [2]; Protein-Ligand Ratio 1:25,16%
same,"ligand binding stoichiometry, CYP121 Dimer",CYP121 [2]; Protein-Ligand Ratio 1:25,2
same,"ligand binding stoichiometry, CYP121 Monomer",CYP121 [2]; Protein-Ligand Ratio 1:25,1
same,shifts in the CYP121 optical spectrum,CYP121 [4],type II shifts
"Oc1ccc(Nc2[nH]nc(-c3ccc(O)cc3)c2-c2ccc(O)cc2)cc1 [compound 2, 4,4'-(5-((4-hydroxyphenyl)amino)-1H-pyrazole-3,4-diyl)diphenol]",LE (ligand efficiency),CYP121 [1]; [5],0.24 and 0.23
"COc1ccc(-c2cn[nH]c2N)cc1-c1cccc(N)c1 [19c, 4-(3′-Amino-6-methoxy-[1,1′-biphenyl]-3-yl)-1H-pyrazol-5-amine]",LE (ligand efficiency),CYP121 [1]; [5],0.27
same,shifts in the CYP121 optical spectrum,CYP121 [4],type II shifts
"Nc1[nH]ncc1-c1cccc(-c2cccnc2)c1 [18e, 4-(3-(Pyridin-3-yl)phenyl)-1H-pyrazol-5-amine]",Δλmax (change in wavelength of the Soret band),CYP121 [4],0 nm
"O=C(Nc1[nH]nc(-c2ccc(O)cc2)c1-c1ccc(O)cc1)c1ccncc1 [29c, N-(3,4-Bis(4-hydroxyphenyl)-1H-pyrazol-5-yl)isonicotinamide]",MIC90,Mtb H37Rv,N
same,LE (ligand efficiency),CYP121 [1]; [5],0.16
"Oc1ccc(-c2n[nH]c(NCc3ccc(O)c(Br)c3)c2-c2ccc(O)cc2)cc1 [26b, 4,4′-(5-((3-Bromo-4-hydroxybenzyl)amino)-1H-pyrazole-3,4-diyl)diphenol]",LE (ligand efficiency),CYP121 [1]; [5],0.22
NC(=O)c1cc(Cl)ccc1N [compound 7],LE (ligand efficiency),CYP121 [1]; [5],0.30
"Nc1cccc(-c2cc(-c3c(-c4ccc(O)cc4)n[nH]c3N)ccc2O)c1 [25b, 3′-Amino-5-(5-amino-3-(4-hydroxyphenyl)-1H-pyrazol-4-yl)-[1,1′-biphenyl]-2-ol]","Binding Mode, CYP144TR",CYP144TR,N
same,"Binding Mode, CYP125",CYP125,N
"Nc1[nH]ncc1-c1cccc(-c2cn[nH]c2)c1 [18i, 4-(3-(1H-Pyrazol-4-yl)phenyl)-1H-pyrazol-5-amine]",Δλmax (change in wavelength of the Soret band),CYP121 [4],0 nm
"Nc1[nH]nc(-c2cccc(O)c2)c1-c1ccc(O)cc1 [14b, 3-(5-Amino-4-(4-hydroxyphenyl)-1H-pyrazol-3-yl)phenol]",LE (ligand efficiency),CYP121 [1]; [5],0.29
"Oc1ccc(-c2n[nH]c(NCc3ccsc3)c2-c2ccc(O)cc2)cc1 [26c, 4,4′-(5-((Thiophen-3-ylmethyl)amino)-1H-pyrazole-3,4-diyl)diphenol]",LE (ligand efficiency),CYP121 [1]; [5],0.25
